{"source": "patent US20090238852A1", "about": "“METHODS FOR CONTROLLING INTRACELLULAR CALCIUM LEVELS ASSOCIATED WITH AN ISCHEMIC EVENT” (University of Utah Research Foundation, priority 2008, published 2009)", "key": {"[1]": {"test_system": "rabbit ventricular myocytes", "test": "Intracellular calcium [Ca^++]i in ventricular myocytes during paced metabolic ischemia (PMI), Fluo-3 flow cytometry", "type": "cell-based", "conditions": "n = 7", "description": "Consequently, it prevents intracellular sodium overload and subsequent reverse mode operation of the sodium-calcium exchanger. The effect of 2-O, 3-O desulfated heparin on accumulation of intracellular Ca^++ during ischemia was studied in an adult rabbit ventricular myocyte model previously reported (Boston D R, et al. J Pharmacol Exp Ther 285:716-723, 1998; Li F, et al. J Mol Cell Cardiol 33:2145-2155, 2001). Isolated cardiomyocytes have been validated as reliable models of ischemia (Diaz, R J, Wilson G J. Cardiovasc Res 70:286-296, 2006).\nTo produce the model, hearts are removed from albino rabbits (2-3 kg) anesthetized with sodium pentobarbital (65 mg/kg IV). The heart was immediately attached to an aorta cannula. Continuous perfusion of the coronary arteries at 37° C. by a pump (Masterflex, Cole-Parmer Instrument Co., Chicago, Ill.) was initiated at a perfusion pressure of 60 mm Hg. The heart was first perfused with nominally Ca^++-free modified Krebs-Ringer bicarbonate buffered solution (MKRBB, pH 7.40, containing in mmol/L: NaCl 126, KCl 4.4, […], MgCl2 1.0, HEPES 24, probenecid 0.5 and glucose 5) for 10 min, immediately followed by 15-25 min of recirculating perfusion with the same solutions containing 0.3 mg/ml collagenase (Type 2, Worthington Biochemical, Freehold, N.J.), 0.4 mg/mL hyaluronidase (Type-S, Sigma-Aldrich, St. Louis, Mo.) and 50 μmol/L CaCl2. The heart was then detached from the cannula, and the left ventricle was minced and transferred to a 50 mL conical tube with the same solution containing 0.24 mg/mL collagenase, 0.02 mg/mL trypsin and 50 μmol/L Ca^++ for a second digestion. The minced tissue was continuously agitated by gassing the solution with 5% CO2 and 95% O2 to help release isolated myocytes. The resulting supernatant was transferred to another conical tube with the same volume of the same solution containing 0.03 mg/mL of trypsin inhibitor (Sigma-Aldrich). The cell suspension was centrifuged at 5×g for 5 minutes. The supernatant was discarded and cells were resuspended in solution with a higher Ca^++ concentration (200 μmol/L) and incubated in a CO2 incubator (5% CO2, 28° C.) to settle down cells by gravity for 10 min. The same procedure was repeated twice to bring up the Ca^++ concentration slowly (500, then 1000 μmol/L). Calcium step-up solutions were made from MKRBB with 2% albumin, 50 μmol/L CaCl2 mixed with the appropriate amount of minimum essential medium (MEM, Gibco Laboratories, Grand Island, N.Y.). At the end of isolation, cells were filtered with a […] to avoid cell clumping during flow cytometry studies. The yield of rod-shaped viable myocytes averaged 50%. Cells were used for experiments within 4 hours after dissociation.\nIn these studies, intracellular calcium concentration [Ca^++]i was measured by flow cytometry. Measurement of isolated mouse and rabbit ventricular myocyte [Ca^2+]i and [Na^+]i by flow cytometry has been described (Zhang et al., J. Cardiovasc. Pharmacol. 51: 443-449 (2008); Li et al., J. Mol. Cell. Cardiol. 33: 2145-2155 (2001)). [Ca^++]i was measured with the Ca^++ sensitive fluorescent probe, Fluo 3-AM (Molecular Probes, Eugene, Oreg.), using a FACScan (Becton-Dickinson, MA). The cells were exposed to 4 μmol/L Fluo-3 AM for 30 min at 37° C. The cells were then separated into aliquots. After 40 min of wash, the cells were exposed to paced metabolic ischemia (MI) for 45 min at 37° C. Metabolic ischemia was accomplished by incubating cells in a glucose-free MKRBB solution (pH 7.40) containing 2 mmol/L sodium cyanide (NaCN) to impair mitochondrial and glycolytic generation of ATP. To reproduce the situation in the beating ischemic heart, during the period of metabolic ischemia, myocytes were placed in a 5-well chamber with equal volumes of myocyte suspensions from the same heart dissociation placed in each well. The chamber was water bathed to maintain temperature at 37° C. and bubbled with 5% CO2 in air to keep myocytes in suspension. […]"}, "[2]": {"test_system": "NCE", "conditions": "cited from earlier work"}, "[3]": {"test_system": "rabbit ventricular myocytes", "test": "[Ca^++]i during paced aerobic metabolism (PH) with the Na^+ channel opener ATX", "type": "cell-based", "conditions": "PH + ATX 20 nmol/L; n = 7; PH alone 406.8 ± 15.9", "method": "(§1) In these studies, intracellular calcium concentration [Ca^++]i was measured by flow cytometry. Measurement of isolated mouse and rabbit ventricular myocyte [Ca^2+]i and [Na^+]i by flow cytometry has been described (Zhang et al., J. Cardiovasc. Pharmacol. 51: 443-449 (2008); Li et al., J. Mol. Cell. Cardiol. 33: 2145-2155 (2001)). [Ca^++]i was measured with the Ca^++ sensitive fluorescent probe, Fluo 3-AM (Molecular Probes, Eugene, Oreg.), using a FACScan (Becton-Dickinson, MA). The cells were exposed to 4 μmol/L Fluo-3 AM for 30 min at 37° C. The cells were then separated into aliquots. After 40 min of wash, the cells were exposed to paced metabolic ischemia (MI) for 45 min at 37° C. Metabolic ischemia was accomplished by incubating cells in a glucose-free MKRBB solution (pH 7.40) containing 2 mmol/L sodium cyanide (NaCN) to impair mitochondrial and glycolytic generation of ATP. To reproduce the situation in the beating ischemic heart, during the period of metabolic ischemia, myocytes were placed in a 5-well chamber with equal volumes of myocyte suspensions from the same heart dissociation placed in each well. The chamber was water bathed to maintain temperature at 37° C. and bubbled with 5% CO2 in air to keep myocytes in suspension. […] Approximately 2×10^3 myocytes were analyzed to calculate average emission fluorescence intensity in each sample. […] Only those cells with low fluorescence intensity at 670 nm (PI-negative cells or viable cells) were included in the comparative analysis of [Ca^++]i. The sample [Ca^2+]i values were calculated by Mn^2+ quenching (Sugishita et al, 2001) and [Na^+]i values by comparison with a standard curve of varied [Na^+]i versus Na Green fluorescence. […] Results were expressed as means±SEM. […]\nTo further examine the role of ODSH as a Na^+ inhibitor, additional experiments were performed in which the Na^+ channel opener amenone toxin II (ATX) was added to medium in a final concentration of 20 nmol/L to open the cardiac myocyte membrane Na^+ channel. […] Intracellular calcium concentration [Ca^++]i was monitored as earlier. […]"}, "[4]": {"test_system": "rabbit ventricular myocytes", "test": "[Na^+]i in paced myocytes exposed to ATX, no metabolic inhibition", "type": "cell-based", "conditions": "ATX 10 nM, HEPES + pacing; FIG. 9; n = 6", "method": "as §1, with “After 40 min of wash, the cells were exposed to paced metabolic ischemia (MI) for 45 min at 37° C.” left out, “suspension. Each well was fitted with platinum sheet electrodes on both sides for field stimulation. One chamber was constructed with a glass coverslip bottom so that myocytes can be observed microscopically to assess capture threshold. Placing electrodes were connected in series to a constant current pulse generator that delivers a 0.2 ampere pulse at 0.5 Hz.” for “suspension.”"}}}
{"molecule": "CS(=O)(=O)O.N=C(N)SCCc1ccc(OCc2ccc([N+](=O)[O-])cc2)cc1", "note": "[KBR, 2-[2-[4-(4-nitrobenzyloxy)phenyl]ethyl]isothiourea metanesulfonate, reference compound]", "values": [{"measurement": "[Ca^++]i", "setting": "[1]; Table 6: PMI + KBR 10 μmol/L, PMI alone 985.5 ± 42.7", "value": "666.5 ± 50.7", "unit": "nM"}, {"measurement": "selectivity for reserve mode versus forward mode", "setting": "[2]; Iwamoto 1996", "value": 50, "unit": "fold"}]}
{"molecule": "CCOc1ccc(Oc2ccc(OCc3cc(F)ccc3F)cc2)c(N)c1", "note": "[SEA0400, 2-[4-[(2,5-difluorophenyl)methoxy]-phenoxy]-5-ethoxyaniline]", "values": [{"measurement": "selectivity for the reverse versus forward mode of the NCE", "setting": "[2]; Matsuda 2001", "value": "lacks selectivity for the reverse versus forward mode of the NCE"}]}
{"molecule": "COc1ccccc1OCC(O)CN1CCN(CC(=O)Nc2c(C)cccc2C)CC1", "note": "(stereo not drawn) [ranolazine, reference compound]", "values": [{"measurement": "effect on [Ca^2+]i during P-MI", "setting": "[1]; each alone: ODSH 100 μg/ml, ranolazine 10 μM, FIG. 8", "value": "reduced [Ca^2+]i to a similar degree"}]}
{"molecule": "ATX: Na^+ channel opener; selective activator of INa,L [reference compound]", "values": [{"measurement": "[Ca^++]i", "setting": "[3]", "value": "529.1 ± 29.3", "unit": "nM"}, {"measurement": "effect on [Na^+]i in paced myocytes", "setting": "[4]", "value": "substantial increase in [Na^+]i"}]}
